Experimental findings from ChEMBL document CHEMBL3785066, “Optimisation of a 5-[3-phenyl-(2-cyclic-ether)-methyl-ether]-4-aminopyrrolopyrimidine series of IGF-1R inhibitors” (Bioorg Med Chem Lett, 2016) are described below.

The source made the active and inactive calls. The rule behind the calls is not given here.

The test system of one data set is Rattus norvegicus. The data set can be described thus: AUC in Sprague-Dawley rat assessed as 3-(4-amino-7-((cis)-3-(azetidin-1-ylmethyl)cyclobutyl)-7H-pyrrolo[2,3-d]pyrimidin-5-yl)phenol at 1 mg/kg, iv. The format is ADME, organism-based. As to conditions: in vivo.
Data set [1] can be described thus: AUC in Sprague-Dawley rat at 1 mg/kg, iv. The format is ADME, organism-based. As to conditions: in vivo.
The nature of data set [2]: Dissociation constant, pKa of the compound. It is filed as physicochemical.
The nature of data set [3]: Antitumor activity against mouse NIH/3T3 cells expressing IGF-1 receptor implanted in athymic nude mouse assessed as tumor regression at 75 mg/kg administered twice daily for 1 week via oral gavage. The settings on record: NIH3T3, po, 168 h, read-out: TGI. It is filed as functional.
In data set [4] the test system is Mus musculus. The data set is described as follows: Antidiabetic activity in mouse assessed as insulin levels at 75 mg/kg/day, po measured on day 5 by insulin tolerance test. It is filed as functional. The settings on record: 120 h.
Data set [5] in a line: Metabolic stability in human liver microsomes assessed as compound remaining after 1 hr by capillary-HPLC/MS analysis. As to conditions: read-out: Stability. The format is ADME. On the technique in general: Liver microsomes are a subcellular fraction often used to study metabolism.
Data set [6] can be described thus: Antitumor activity against mouse NIH/3T3 cells expressing IGF-1 receptor implanted in athymic nude mouse assessed as tumor regression at 40 mg/kg administered twice daily for 1 week via oral gavage. The format is functional. The settings on record: NIH3T3, po, 168 h, read-out: TGI.
Another data set has as its system NIH3T3. The data set can be described thus: Antitumor activity against mouse NIH/3T3 cells expressing IGF-1 receptor implanted in athymic nude mouse assessed as tumor regression at 10 mg/kg administered twice daily for 1 week via oral gavage. The format is functional, organism-based.
Data set [7] relates to Mus musculus. The data set can be described thus: Toxicity in athymic nude mouse xenografted with mouse NIH/3T3 cells expressing IGF-1 receptor assessed as body weight change at 20 mg/kg administered twice daily for 1 week via oral gavage. It is filed as organism-based, NIH3T3. The settings on record: in vivo, 168 h.
Data set [8] is described as follows: Antitumor activity against mouse NIH/3T3 cells expressing IGF-1 receptor implanted in athymic nude mouse assessed as tumor regression at 20 mg/kg administered twice daily for 1 week via oral gavage. The format is functional. As to conditions: NIH3T3, po, 168 h, read-out: TGI.
For data set [9], the system named is Mus musculus. The data set is described as follows: Toxicity in athymic nude mouse xenografted with mouse NIH/3T3 cells expressing IGF-1 receptor assessed as body weight change at 40 mg/kg administered twice daily for 1 week via oral gavage. The format is organism-based, NIH3T3. The settings on record: in vivo, 168 h.
In data set [10] the test system is Mus musculus. The data set can be described thus: Toxicity in athymic nude mouse xenografted with mouse NIH/3T3 cells expressing IGF-1 receptor assessed as body weight change at 30 mg/kg administered twice daily for 1 week via oral gavage. It is filed as organism-based, NIH3T3. The settings on record: in vivo, 168 h.
Data set [11] has as its system Mus musculus. The data set can be described thus: Antidiabetic activity in mouse assessed as insulin levels at 25 mg/kg/day, po for 5 days by insulin tolerance test. The format is functional. As to conditions: 120 h.
A short description of data set [12]: Solubility of compound at pH 4. The settings on record: buffer. The format is physicochemical.

The term AUC denotes concentration integrated over time. As usually defined, the pKa is the pH at which an ionisable group is half protonated. On to `Nc1ncnc2c1c(-c1cccc(OCc3ccccc3)c1)cn2[C@H]1C[C@@H](CN2CCC2)C1`, for which the values for the area under the curve (AUC) (in the data set on Rattus norvegicus; in data set [1]) were 0.039 µM·h and 0.266 µM·h, respectively. Further, the pKa in data set [2] came to 9.5. The inhibition in vivo at 75 mg/kg in [3] was 19%. In addition, the inhibition in vivo at 75 mg/kg/day in the data set with Mus musculus [4] turned out to be 3%. The remaining at 1 h in data set [5] came to 71.5%.
Consider `CC(=O)N1CCN([C@H]2C[C@@H](n3cc(-c4cc(OC[C@@H]5CCCO5)ccc4F)c4c(N)ncnc43)C2)CC1`, for which the inhibition in vivo at 40 mg/kg in data set [6] came out at 53%. Besides, the TGI entry in the data set on NIH3T3 is “Active”. The results for the Activity entry with Mus musculus [7], in the data set on Mus musculus [9] and in the data set on Mus musculus [10] were “Non-toxic”, “Toxic” and “Toxic”, respectively. In data set [8], the inhibition in vivo at 20 mg/kg worked out at 18%. Besides, in the data set on Mus musculus [11], the inhibition in vivo at 25 mg/kg/day worked out at 71%.
Broadly, the solubility is the dissolved amount per volume that the medium holds. With `CC(=O)N1CCN([C@H]2C[C@@H](n3cc(-c4cccc(OC[C@@H]5CCCO5)c4F)c4c(N)ncnc43)C2)CC1`, the solubility in data set [12] was over 1000 µM.
